ChEMBL document CHEMBL1132900, “Methaqualone derivatives are potent noncompetitive AMPA receptor antagonists” (Bioorg Med Chem Lett, 2000)

Each compound was assayed against Glutamate receptor ionotropic, AMPA (Rattus norvegicus, UniProt P19490+P19491+P19492+P19493).
Description: Antagonist potency against functional AMPA receptor by kainate-induced Ca+2 in rat cerebellar granule neurons in primary culture

Point of comparison: `Cc1cccc(/C(O)=C/c2nc3ccc(F)cc3c(=O)n2-c2ccccc2Cl)n1`, IC50 5500 nM. Against it:
- Cc1ccc(C#N)c(/C(O)=C/c2nc3ccc(F)cc3c(=O)n2-c2ccccc2Cl)n1 — 590-fold lower, 9.3 nM
- N#Cc1cccnc1/C(O)=C/c1nc2ccc(F)cc2c(=O)n1-c1ccccc1Cl — 390-fold lower, 14 nM
- N#Cc1ccccc1/C(O)=C/c1nc2ccc(F)cc2c(=O)n1-c1ccccc1Cl — 42-fold lower, 130 nM
- O=c1c2ccccc2nc(/C=C(\O)c2ccccn2)n1-c1ccccc1Cl — 11-fold lower, 490 nM
- O=c1c2cc(F)ccc2nc(/C=C(\O)c2ccccc2F)n1-c1ccccc1Cl — higher, > 30000 nM
- O=c1c2ccccc2nc(/C=C(\O)c2ccncc2)n1-c1ccccc1Cl — 15-fold lower, 370 nM
- O=c1c2cc(F)ccc2nc(/C=C(\O)c2ccccn2)n1-c1ccccc1Cl — 22-fold lower, 250 nM
- CC1=NN=C(c2ccc(N)cc2)c2cc3c(cc2C1)OCO3 [GYKI-52466] — 4-fold higher, 22000 nM
- Cc1nc2ccccc2c(=O)n1-c1ccccc1Cl [MECLOQUALONE] — higher, > 10000 nM
- Cc1ccccc1-n1c(C)nc2ccccc2c1=O [METHAQUALONE] — higher, > 10000 nM
